# Laboratory results taken from US12295937B2, “Psychoactive medicines and their use for treating psychiatric and neurological conditions and disorders” (Transcend Therapeutics, Inc., priority 2021, dated 2025).
# Test: Rat Forced Swim Test (FST)
# Type: in vivo
# Details: for Reduction in immobility: single dose 30 min before test
# Source text: The Forced Swim Test (FST) is a classic, and the most used preclinical behavioral assay to screen compounds with antidepressant-like activity and has high predictive and face validity (Porsolt et al. (1977) Nature 266:730; Borsini and Meli (1988) Psychopharmacology 94:147). The premise of the FST is that when rats are placed into a cylinder filled with water, they will initially try to escape, but over time will become immobile. This increased immobility reflects behavioral despair, modeling a depressive-like state.
# Forced Swim Test (EST): In the FST trial, rats were placed in a circular plexiglass container filled with water, with no means of escape. Water temperature was maintained at 22-25° C. and changed for every animal. After an acclimation period, rats were timed for inactivity (failure to struggle), activity, swim time and climbing time. Day 1 consisted of a 15 min acclimation trial, and Day 2 (24 h later) consisted of the 5 min test. A time sampling procedure was employed where animals were observed every 5 sec and scored for immobility, swimming, or climbing. Fluoxetine (10 mg/kg, IP, Sigma Aldrich) or 0.9% sterile saline vehicle (vehicle 3× group) were administered 23.5, 5, and 1 h before testing in the FST. […] The experimenter was blinded to treatment.
# Forced Swim Test: In the FST trial, rats were placed in a circular plexiglass container filled with water, with no means of escape. Water temperature was maintained at 22-25° C. and changed for every animal. After an acclimation period, rats were timed for inactivity (failure to struggle), activity, swim time and climbing time. Day 1 consisted of a 15 min acclimation trial, and Day 2 (24 h later) consisted of the 5 min test. A time sampling procedure was employed where animals were observed every 5 sec and scored for immobility, swimming, or climbing. Fluoxetine (10 mg/kg, IP, Sigma Aldrich) or 0.9% sterile saline vehicle (vehicle 3× group) were administered 23.5, 5, and 1 h before testing in the FST. 2C-B (2.5, 10, or 20 mg/kg, IP, Cayman Chemical) or 0.9% saline vehicle (vehicle 1× group) were administered 30 min prior to FST testing. The experimenter was blinded to treatment.
# Drug Treatment: Fluoxetine (10 mg/kg, IP, Sigma Aldrich) or 0.9% sterile saline vehicle were administered 23.5, 5, and 1 h before testing in the FST. […] Control animals received fluoxetine alone, methylone alone, or saline vehicle.
# Forced Swim Test: In the FST trial, rats were placed in a circular plexiglass container filled with water, with no means of escape. Water temperature was maintained at 22-25° C. and changed for every animal. After an acclimation period, rats were timed for inactivity (failure to struggle), activity, swim time and climbing time. The experimenter and scorer were blind to treatment group. Day 1 consisted of a 15 min acclimation trial, and Day 2 (24 h later) consisted of the 5 min test. A time sampling procedure was employed where animals were observed every 5 sec and scored for immobility, swimming, or climbing.
# The FST was performed and scored by an experimenter blind to treatment group according to standard protocols and based on a “modified FST” procedure (Slattery and Cryan (2012) Nat Protoc, 7:1009). Briefly, rats were placed in a circular plexiglass container (29.2 cm diameter, 49.5 cm height) filled with water to a depth of 30 cm so rats could not support themselves by touching the bottom of the tank. Water was maintained at 22-25° C. and was changed for every animal. Day 1 (Training) consisted of a 15 min acclimation trial, and Day 2 (Testing, 24 h later) consisted of the 5 min test. A time sampling procedure was employed where animals were observed every 5 seconds for the duration of the test session (60 counts or 5 minutes) and scored for immobility (defined as the failure to struggle), swimming (defined as a circular movement around the tank), or climbing (defined as an upwards escape behavior). […]
structure (smiles),measurement,setting,value
"CNC(C)C(=O)c1ccc2c(c1)OCO2 (stereo not shown) [Methylone, 3,4-methylenedioxy-N-methylcathinone]",Reduction in immobility,15 mg/kg IP,99%
same,Antidepressant-like effect vs. vehicle,"15 mg/kg PO, 2 hours before test",significant antidepressant-like effect
same,Reduction in immobility,30 mg/kg IP,96%
same,Reduced immobility vs. vehicle,Methylone 5 mg/kg IP after three prior doses of fluoxetine 10 mg/kg,62%
same,Reduced immobility vs. vehicle,Methylone alone 5 mg/kg IP (Example 8),71%
same,Climbing behavior,doses as worded,significantly increased climbing behavior
same,Swimming behavior,doses as worded,Mid and high doses of methylone significantly increased swimming
same,Climbing behavior,"doses as worded, listed as methylone",Climbing was only increased at the lowest dose of methylone
same,Antidepressant-like effect of multiple lower doses,"four […] IP doses 20.5, 8.5, 4.5, 0.5 h before test",significant antidepressant-like effects
same,Immobility vs. saline vehicle,"single dose 5, 10, 15, 20 and 30 mg/kg IP, 30 min before test",significantly reduced immobility
